Patent US20050113337A1, “Enhancement of oral bioavailability of non-emulsified formulations of prodrug esters with lecithin” (TAP Pharmaceutical Products, Inc., priority 2001, published 2005)

Columns and labels:
[1] = tested on: Carboxylesterase from porcine liver; assay: Esterase degradation of cefditoren pivoxil; format: in vitro ADME; details: 20 minutes, 37° C.; for amount of cefditoren pivoxil remaining: esterase; for % cefditoren pivoxil remaining: simulated intestinal fluid
Protocol: First, a test was performed to determine whether cefditoren pivoxil is degraded by esterase. 25 mg of cefditoren pivoxil (available from Meiji Saika Kaisha Ltd of Japan) was dissolved in 100 ml of an aqueous solution containing 10% dimethylsulfoxide and 0.1 N. hydrochloric acid to make up an 0.25 mg/ml solution. Carboxylesterase (also referred to as esterase herein) from porcine liver (15 mg protein/ml, 250 units/mg protein, available from Sigma-Aldrich) was dissolved in simulated intestinal fluid (SIF having no added pancreatin, available from Sigma-Aldrich) to make up a solution having 0.5 units/ml.
2 ml of the cefditoren pivoxil solution was then mixed with 2 ml of the esterase solution and 2 ml of simulated intestinal fluid. This mixture was allowed to react for 20 minutes at 37° C. and then the reaction was quenched with 1.0 ml of acetonitrile. This procedure was repeated with esterase at two other concentrations.
The experimental procedure was as described above, except that the cefditoren pivoxil was dissolved in 3% lecithin (LECI-PC 35 P, available from Traco Labs of IL).
The amount of cefditoren pivoxil remaining in each of the samples was determined by HPLC, and compared to the amount of cefditoren pivoxil of a control solution. The control solution was 2.0 ml cefditoren pivoxil, 2.0 ml of 10% modified lecithin solution and 2.0 ml simulated intestinal fluid incubated and then quenched as above.

[2] = Solubility of cefditoren pivoxil in lecithin dispersions; format: physicochemical
Protocol: The solubility of cefditoren pivoxil in various lecithins was determined as follows. Three types of lecithin were tested: lecithin (LECI-PC 35P available from Traco Labs, IL), modified lecithin (containing 70% maltodextrin and 30% phosphatidyl choline; ALCOLEC SM 100 available from American Lecithin Inc. of CT) and hydroxylated lecithin (CENTROLENE A, available from Central Soya, IN). 5%, 10% and 15% suspensions of each type of lecithin were made up in distilled deionized water to form the test dispersions. Cefditoren pivoxil (available from Meiji Saika Kaisha Ltd of Japan) was added to each test dispersion. Each sample was vortexed for one minute, sonicated for two minutes, vortexed again for one minute and then centrifuged at 2000 rpm for ten minutes at room temperature. The resulting supernatant fraction was collected, filtered through a 0.45 μm filter and analyzed by HPLC.

amount of cefditoren pivoxil remaining ([1]; cefditoren pivoxil dissolved in 3% lecithin (LECI-PC 35 P)): 57.4%
amount of cefditoren pivoxil remaining ([1]; control (non-lecithin containing) solution): 7%
% cefditoren pivoxil remaining ([1]; esterase concentration 0.05 units/ml): 81.9%
% cefditoren pivoxil remaining ([1]; esterase concentration 0.5 units/ml): 4.5%
% cefditoren pivoxil remaining ([1]; esterase concentration 5 units/ml): 0.3%
solubility ([2]; in aqueous lecithin solution (LECI-PC 35P)): 678.5 µg/mL
solubility ([2]; in hydroxylated lecithin (CENTROLENE A)): 715.0 µg/mL
solubility ([2]; in modified lecithin (ALCOLEC SM 100)): 868.1 µg/mL
solubility ([2]; in water alone): 31.8 µg/mL
Substance: cefditoren pivoxil
